The values that follow come from ChEMBL document CHEMBL1127136, “Vinylogous vs arylogous isocephems” (1993).

One test relates to Enterobacteriaceae. Kind of test: Antibacterial activity against enterobacteriaceae was determined. The class given is functional.
The test system of the next test is Staphylococcus sp. Kind of test: Antibacterial activity against staphylococci was determined. The class given is functional.

Converted amounts (≈) assume the structure as drawn.

For `CO/N=C(/C(=O)N[C@@H]1C(=O)N2C(C(=O)[O-])=C(C[N+](C)(C)C)SC[C@H]12)c1csc(N)n1`, the minimal inhibitory concentration (MIC) turned out to be 0.28 µg/mL (≈ 0.616 µM) with Enterobacteriaceae and 10 µg/mL (≈ 22 µM) in the test with Staphylococcus sp..
Turning to `CO/N=C(/C(=O)N[C@@H]1C(=O)N2C(C(=O)O)=C(CSc3nnnn3C)SC[C@H]12)c1csc(N)n1`, the values for the minimal inhibitory concentration (MIC) against Enterobacteriaceae and in the test on Staphylococcus sp. were 0.4 µg/mL (≈ 0.782 µM) and 15.9 µg/mL (≈ 31.1 µM), respectively.
As for `CO/N=C(/C(=O)N[C@@H]1C(=O)N2C(C(=O)[O-])=C(/C=C/c3cccc(C[n+]4ccccc4)c3)SC[C@H]12)c1csc(N)n1`, the MIC against Enterobacteriaceae came out at 8 µg/mL (≈ 13.9 µM); in the test with Staphylococcus sp., 2.5 µg/mL (≈ 4.34 µM).
`CO/N=C(/C(=O)N[C@@H]1C(=O)N2C(C(=O)[O-])=C(C[n+]3cccc4ccsc43)SC[C@H]12)c1csc(N)n1`: the MIC is 0.12 µg/mL (≈ 0.226 µM) against Enterobacteriaceae and 0.76 µg/mL (≈ 1.43 µM) in the test with Staphylococcus sp..
Take `CO/N=C(/C(=O)N[C@@H]1C(=O)N2C(C(=O)[O-])=C(/C=C/c3ccccc3C[n+]3ccccc3)SC[C@H]12)c1csc(N)n1`: the MIC with Enterobacteriaceae came to 7.3 µg/mL (≈ 12.7 µM); in the test on Staphylococcus sp. it was 0.95 µg/mL (≈ 1.65 µM).
On the same counts, the results for `CO/N=C(/C(=O)N[C@@H]1C(=O)N2C(C(=O)[O-])=C(/C=C/c3ccc(C[n+]4ccccc4)s3)SC[C@H]12)c1csc(N)n1` are 3.8 µg/mL (≈ 6.52 µM) and 3.1 µg/mL (≈ 5.32 µM).
For `CO/N=C(/C(=O)N[C@@H]1C(=O)N2C(C(=O)O)=C(/C=C/C=C/CSc3nnnn3C)SC[C@H]12)c1csc(N)n1`, in that order: 1.5 µg/mL (≈ 2.66 µM) and 5 µg/mL (≈ 8.87 µM).
In the case of `CO/N=C(/C(=O)N[C@@H]1C(=O)N2C(C(=O)[O-])=C(/C=C/C[n+]3cccc4ccsc43)SC[C@H]12)c1csc(N)n1`, the minimal inhibitory concentration (MIC) with Enterobacteriaceae came to 0.03 µg/mL (≈ 0.0539 µM); in the test with Staphylococcus sp., 0.12 µg/mL (≈ 0.216 µM).
`CO/N=C(/C(=O)N[C@@H]1C(=O)N2C(C(=O)[O-])=C(C[n+]3ccccc3)SC[C@H]12)c1csc(N)n1`: the MIC with Enterobacteriaceae worked out at 0.2 µg/mL (≈ 0.421 µM); with Staphylococcus sp. it was 2.5 µg/mL (≈ 5.27 µM).
Regarding `CO/N=C(/C(=O)N[C@@H]1C(=O)N2C(C(=O)[O-])=C(/C=C/c3cc[n+](C)cc3)SC[C@H]12)c1csc(N)n1`, the MIC against Enterobacteriaceae amounted to 0.3 µg/mL (≈ 0.599 µM); against Staphylococcus sp. it was 0.8 µg/mL (≈ 1.6 µM).
On the same counts, the results for `CO/N=C(/C(=O)N[C@@H]1C(=O)N2C(C(=O)[O-])=C(/C=C\C[N+](C)(C)C)SC[C@H]12)c1csc(N)n1` are 1 µg/mL (≈ 2.08 µM) and 10 µg/mL (≈ 20.8 µM).
For `CO/N=C(/C(=O)N[C@@H]1C(=O)N2C(C(=O)O)=C(/C=C/C=C/C[n+]3cccc4ccsc43)SC[C@H]12)c1csc(N)n1.O=C([O-])C(F)(F)F`, in that order: 0.12 µg/mL and 0.38 µg/mL.
On the same counts, the results for `CO/N=C(/C(=O)N[C@@H]1C(=O)N2C(C(=O)[O-])=C(/C=C/C[N+](C)(C)C)SC[C@H]12)c1csc(N)n1` are 0.19 µg/mL (≈ 0.395 µM) and 1.2 µg/mL (≈ 2.5 µM).
Regarding `CO/N=C(/C(=O)N[C@@H]1C(=O)N2C(C(=O)O)=C(/C=C/CSc3nnnn3C)SC[C@H]12)c1csc(N)n1`, the figures for the MIC in the test on Enterobacteriaceae and in the test with Staphylococcus sp. were 0.14 µg/mL (≈ 0.26 µM) and 2.5 µg/mL (≈ 4.65 µM), respectively.
For `CO/N=C(/C(=O)N[C@@H]1C(=O)N2C(C(=O)[O-])=C(/C=C/c3ccc(C[n+]4ccccc4)o3)SC[C@H]12)c1csc(N)n1`, in that order: 5.9 µg/mL (≈ 10.4 µM) and 6.3 µg/mL (≈ 11.1 µM).
Regarding `CO/N=C(/C(=O)N[C@@H]1C(=O)N2C(C(=O)[O-])=C(/C=C/c3ccc(C[n+]4ccccc4)cc3)SC[C@H]12)c1csc(N)n1`, the MIC in the test on Enterobacteriaceae is 3.9 µg/mL (≈ 6.76 µM); against Staphylococcus sp. it was 6.3 µg/mL (≈ 10.9 µM).
On the same counts, the results for `CO/N=C(/C(=O)N[C@@H]1C(=O)N2C(C(=O)[O-])=C(/C=C/C#CC[n+]3ccccc3)SC[C@H]12)c1csc(N)n1` are 0.4 µg/mL (≈ 0.763 µM) and 5 µg/mL (≈ 9.53 µM).
